These results are taken from US20080242661A1, “Novel compounds useful for the treatment of degenerative & inflammatory diseases” (priority 2006, published 2008).

This experiment deals with purified PDE1A enzyme (Homo sapiens, UniProt P54750). Nature of the experiment: In vitro PDE1A assay, dose response (Biomol Cyclic Nucleotide Phosphodiesterase Assay Kit, colorimetric). In kind it is biochemical. As to conditions: 100 μM cAMP, 45 min at 37° C., 8 points from 20 μM, duplicate. The source says:
For the dose response and further screening, we used the Cyclic Nucleotide Phosphodiesterase Assay Kit from Biomol, a colorimetric, non-radioactive assay. The basis for the assay is the cleavage of cAMP by PDE1A. The 5′AMP is further cleaved into the nucleoside and phosphate by the enzyme 5′-nucleotidase (catnr KI-307). The phosphate released due to enzymatic cleavage is quantified using BIOMOL GREEN™ reagent (catnr AK-111) in a modified Malachite Green assay 1,2. A PDE1A inhibitor will result in a decrease of the signal.
For the enzymatic reaction a mix of 25 μL with purified PDE1A enzyme, 100 μM cAMP, 5′Nucleotidase and the compound is made in a clear 384-plate. The reaction buffer is Tris 20 mM pH 7.4, 4 μg/ml calmodulin, 3 mM MgCl2, 1.5 mM CaCl2, 0.2 mg/mL BSA and 0.001% Brij-35. After an incubation of 45 minutes at 37° C., the reaction is stopped by the addition of 50 μL BIOMOL GREEN™ reagent. After 30 minutes incubation at room temperature, the readout is performed on the Envision (absorption at 615 nm).
All compounds are tested in duplicate starting from 20 μM followed by a ⅓ serial dilution, 8 points (20 μM-6.67 μM-2.22 μM-740 nM-247 nM-82 nM-27 nM-9 nM) in a final concentration of 1% DMSO. As the positive dose response control compound Vardenafil is used. For the calculation of z′ and PIN values 10 μM Vardenafil is used as positive control (100% inhibition) and 1% DMSO as negative control (0% inhibition).
The following compounds have been or can be prepared according to the synthetic methods described above. For the purpose of Table 2 below, activity of each compound, which can be determined using the PDE1A assay method described in above, is expressed as follows: […]
`CCCc1nn(C)c2c(=O)[nH]c(N(C)Cc3cccc(N4CCOCC4)c3)nc12` [Example 10, 1-methyl-5-(methyl(3-morpholinobenzyl)amino)-3-propyl-1H-pyrazolo[4,3-d]pyrimidin-7(6H)-one] registered an IC50 of 101 to 500 nM.
In the case of `CCCc1nn(C)c2c(=O)[nH]c(NCc3ccc(N4CCN(C)CC4)cc3)nc12` [Example 6, 1-methyl-5-(4-(4-methylpiperazin-1-yl)benzylamino)-3-propyl-1H-pyrazolo[4,3-d]pyrimidin-7(6H)-one], the IC50 is above 500 nM.
The result for `CCCc1nn(C)c2c(=O)[nH]c(N(Cc3cccc(N4CCN(C)CC4)c3)CC(C)C)nc12` [Example 102, 5-(isobutyl(3-(4-methylpiperazin-1-yl)benzyl)amino)-1-methyl-3-propyl-1H-pyrazolo[4,3-d]pyrimidin-7(6H)-one] reads below 100 nM; that for `CCCc1nn(C)c2c(=O)[nH]c(N(C)Cc3cccc(OCCN4CCOCC4)c3)nc12` [Example 48, 1-methyl-5-(methyl(3-(2-morpholinoethoxy)benzyl)amino)-3-propyl-1H-pyrazolo[4,3-d]pyrimidin-7(6H)-one], above 500 nM; that for `CC(C)CN(Cc1ccc(F)cc1)c1nc2c(C(C)(C)C)nn(C)c2c(=O)[nH]1` [Example 97, 3-tert-butyl-5-((4-fluorobenzyl)(isobutyl)amino)-1-methyl-1H-pyrazolo[4,3-d]pyrimidin-7(6H)-one], below 100 nM.
Turning to `CC1CCCCN1c1nc2c(C3CCCC3)nn(C)c2c(=O)[nH]1` (stereo not shown) [Example 84, 3-cyclopentyl-1-methyl-5-(2-methylpiperidin-1-yl)-1H-pyrazolo[4,3-d]pyrimidin-7(6H)-one], the IC50 is above 500 nM.
`Cc1nc(-c2cccc(CN(C)c3nc4c(C(C)(C)C)nn(C)c4c(=O)[nH]3)c2)cs1` [Example 90, 3-tert-butyl-1-methyl-5-(methyl(3-(2-methylthiazol-4-yl)benzyl)amino)-1H-pyrazolo[4,3-d]pyrimidin-7(6H)-one] had an IC50 below 100 nM.
Molecule `CCCc1nn(C)c2c(=O)[nH]c(N(Cc3ccc(F)cc3)CC(C)C)nc12` [Example 98, 5-((4-fluorobenzyl)(isobutyl)amino)-1-methyl-3-propyl-1H-pyrazolo[4,3-d]pyrimidin-7(6H)-one] showed an IC50 below 100 nM.
On to `CN(Cc1ccc(Cl)c(Cl)c1)c1nc2c(C3CCCC3)nn(C)c2c(=O)[nH]1` [Example 77, 3-cyclopentyl-5-((3,4-dichlorobenzyl)(methyl)amino)-1-methyl-1H-pyrazolo[4,3-d]pyrimidin-7(6H)-one], for which the IC50 was below 100 nM.
The result for `CCCc1nn(C)c2c(=O)[nH]c(N(C)Cc3ccc(OC)cc3)nc12` [Example 9, 5-((4-methoxybenzyl)(methyl)amino)-1-methyl-3-propyl-1H-pyrazolo[4,3-d]pyrimidin-7(6H)-one] reads below 100 nM; that for `CCCc1nn(C)c2c(=O)[nH]c(NCc3cccc(-c4ccn(C)n4)c3)nc12` [Example 67], below 100 nM.
`CCCc1nn(C)c2c(=O)[nH]c(NCc3ccc(CN4CCOCC4)cc3)nc12` [Example 27, 1-methyl-5-(4-(morpholinomethyl)benzylamino)-3-propyl-1H-pyrazolo[4,3-d]pyrimidin-7(6H)-one] returned an IC50 of 101 to 500 nM.
The molecule `CCCc1nn(C)c2c(=O)[nH]c(N(C)Cc3csc(-c4ccc(C(F)(F)F)cc4)n3)nc12` [Example 39, 1-methyl-5-(methyl((2-(4-(trifluoromethyl)phenyl)thiazol-4-yl)methyl)amino)-3-propyl-1H-pyrazolo[4,3-d]pyrimidin-7(6H)-one] displayed an IC50 of 101 to 500 nM.
Molecule `CCCc1nn(C)c2c(=O)[nH]c(N(C)Cc3sc(-c4ccccc4)nc3C)nc12` [Example 47, 1-methyl-5-(methyl((4-methyl-2-phenylthiazol-5-yl)methyl)amino)-3-propyl-1H-pyrazolo[4,3-d]pyrimidin-7(6H)-one] returned an IC50 below 100 nM.
Molecule `CCCc1nn(C)c2c(=O)[nH]c(NCc3c(C)nn(Cc4ccccc4)c3C)nc12` [Example 91, 5-((1-benzyl-3,5-dimethyl-1H-pyrazol-4-yl)methylamino)-1-methyl-3-propyl-1H-pyrazolo[4,3-d]pyrimidin-7(6H)-one] gave an IC50 of 101 to 500 nM.
In the case of `CCCc1nn(C)c2c(=O)[nH]c(N(CC(C)C)CC(C)C)nc12` [Example 29, 5-(diisobutylamino)-1-methyl-3-propyl-1H-pyrazolo[4,3-d]pyrimidin-7(6H)-one], the IC50 lay in the range of 101 to 500 nM.
The result for `CCCc1nn(C)c2c(=O)[nH]c(N(C)CCC)nc12` [Example 30, 1-methyl-5-(methyl(propyl)amino)-3-propyl-1H-pyrazolo[4,3-d]pyrimidin-7(6H)-one] reads 101 to 500 nM.
For the molecule `Cc1nc(-c2ccccc2)sc1CN(C)c1nc2c(C(C)(C)C)nn(C)c2c(=O)[nH]1` [Example 80, 3-tert-butyl-1-methyl-5-(methyl((4-methyl-2-phenylthiazol-5-yl)methyl)amino)-1H-pyrazolo[4,3-d]pyrimidin-7(6H)-one], the IC50 was below 100 nM.
`CCCc1nn(C)c2c(=O)[nH]c(NCc3cccc(-n4cccn4)c3)nc12` [Example 63] registered an IC50 of 101 to 500 nM.
In turn, `CCCc1nn(C)c2c(=O)[nH]c(NCc3nnc4ccccn34)nc12` [Example 83, 5-([1,2,4]triazolo[4,3-a]pyridin-3-ylmethylamino)-1-methyl-3-propyl-1H-pyrazolo[4,3-d]pyrimidin-7(6H)-one] displayed an IC50 of 101 to 500 nM.
The result for `CCCc1nn(C)c2c(=O)[nH]c(N(C)CC(C)CC)nc12` (stereo not shown) [Example 112, 1-methyl-5-(methyl(2-methylbutyl)amino)-3-propyl-1H-pyrazolo[4,3-d]pyrimidin-7(6H)-one] reads 101 to 500 nM.
On to `CCCC(C)CN(Cc1cccc(-n2cccn2)c1)c1nc2c(C(C)(C)C)nn(C)c2c(=O)[nH]1` (stereo not shown) [Example 122], for which the IC50 was below 100 nM.
In turn, `CCCc1nn(C)c2c(=O)[nH]c(N(C)Cc3ccc(-c4ccccn4)cc3)nc12` [Example 44, 1-methyl-5-(methyl(4-(pyridin-2-yl)benzyl)amino)-3-propyl-1H-pyrazolo[4,3-d]pyrimidin-7(6H)-one] gave an IC50 of 101 to 500 nM.
`CCCc1nn(C)c2c(=O)[nH]c(N(C)Cc3ccc(Cl)cc3)nc12` [Example 17, 5-((4-chlorobenzyl)(methyl)amino)-1-methyl-3-propyl-1H-pyrazolo[4,3-d]pyrimidin-7(6H)-one] yielded an IC50 below 100 nM.
For `CCCc1nn(C)c2c(=O)[nH]c(N(Cc3cccc(-n4cccc4)c3)CC(C)C)nc12` [Example 101] the value was below 100 nM; for `CCCc1nn(C)c2c(=O)[nH]c(N(Cc3cccc(-n4cccn4)c3)CC(CC)CC)nc12` [Example 107], below 100 nM.
For `CCCc1nn(C)c2c(=O)[nH]c(NCc3cccc(CN4CCOCC4)c3)nc12` [Example 53, 1-methyl-5-(3-(morpholinomethyl)benzylamino)-3-propyl-1H-pyrazolo[4,3-d]pyrimidin-7(6H)-one] the value was above 500 nM; for `CCCc1nn(C)c2c(=O)[nH]c(NCc3ccnc(N4CCOCC4)c3)nc12` [Example 54, 1-methyl-5-((2-morpholinopyridin-4-yl)methylamino)-3-propyl-1H-pyrazolo[4,3-d]pyrimidin-7(6H)-one], 101 to 500 nM.
As to `CCCc1nn(C)c2c(=O)[nH]c(NCc3cccc(-n4cccc4)c3)nc12` [Example 64], the IC50 lay within 101 to 500 nM.
With `CCCc1nn(C)c2c(=O)[nH]c(NCc3cc(C(F)(F)F)cc(C(F)(F)F)c3)nc12` [Example 31, 5-(3,5-bis(trifluoromethyl)benzylamino)-1-methyl-3-propyl-1H-pyrazolo[4,3-d]pyrimidin-7(6H)-one], the IC50 was above 500 nM.
`CCCc1nn(C)c2c(=O)[nH]c(NCc3nn(-c4ccccc4)nc3C)nc12` [Example 52, 1-methyl-5-((5-methyl-2-phenyl-2H-1,2,3-triazol-4-yl)methylamino)-3-propyl-1H-pyrazolo[4,3-d]pyrimidin-7(6H)-one] gave a half-inhibitory concentration (IC50) below 100 nM.
The molecule `CCCc1nn(C)c2c(=O)[nH]c(N3CCc4ccccc4C3)nc12` [Example 8, 5-(3,4-dihydroisoquinolin-2(1H)-yl)-1-methyl-3-propyl-1H-pyrazolo[4,3-d]pyrimidin-7(6H)-one] yielded an IC50 of 101 to 500 nM.
The molecule `CCCc1nn(C)c2c(=O)[nH]c(N(CCC(C)(C)C)Cc3cccc(N4CCOCC4)c3)nc12` [Example 108, 5-((3,3-dimethylbutyl)(3-morpholinobenzyl)amino)-1-methyl-3-propyl-1H-pyrazolo[4,3-d]pyrimidin-7(6H)-one] displayed an IC50 below 100 nM.
`CCCc1nn(C)c2c(=O)[nH]c(N(C)Cc3cc(-c4ccccc4)on3)nc12` [Example 25, 1-methyl-5-(methyl((5-phenylisoxazol-3-yl)methyl)amino)-3-propyl-1H-pyrazolo[4,3-d]pyrimidin-7(6H)-one] registered an IC50 below 100 nM.

As a reminder, the IC50 is the concentration that gives 50% inhibition.
